Test results: patent US20260297095A1, “NOVEL PYRROLOTRIAZINE DERIVATIVE AND USE THEREOF” (Pelemed Co., Ltd., priority 2024, published 2026)

Tests used:
[1] = system: KYSE-70 esophageal cancer cell line; assay: Cell growth inhibition of KYSE-70 (Sulforhodamine B); type: cell-based; conditions: Homo sapiens; KYSE-70, 72 hours; read-out: KYSE70 GI50
Method: The cell line according to the present invention was selected as KYSE-70, an esophageal cancer cell line in which YES1 is amplified. The evaluation of cell growth inhibition was performed as follows.
KYSE-70 was cultured in RPMI-1640 (Capricorn) supplemented with 10% FBS (Cellgro). The cells were seeded 24 hours prior to compound treatment, into three 96-well F-bottom clear plates (Greiner), with 7,500 cells per well in 180 μL of medium. The 10 mM compound was diluted 100-fold in medium to prepare a 100 μM compound, which was then placed into a 96-well plate and further 3-fold diluted in medium to prepare a compound plate with concentrations ranging from 0.046 μM to 100 μM. 20 μL of each compound from the drug plate was added to the cell-seeded plates to achieve final concentrations of 0.0046 μM to 10 μM. At the same time, 50 μL of 33% trichloroacetic acid was injected into one plate and the plate was fixed by incubating at 4° C. This was referred to as the Do plate. Viable cells were measured 72 hours after compound treatment by injecting 50 μL of 33% trichloroacetic acid and incubating at 4° C. for more than 1 hour to fix the cells. This was referred to as the D3 plate. After the Do plate and D3 plates were washed 5 times with sterile water, 100 μL of 0.04% Sulforhodamine B solution in 1% acetic acid was added and reacted for 1 hour to stain the cells. After staining, the plates were washed 4 times with 1% acetic acid solution and completely dried. Then, the Sulforhodamine B bound to cellular proteins was completely dissolved with 10 mM Tris base solution (pH 10.5). The absorbance was measured at a wavelength of 510 nm using a microplate reader (TECAN, sunrise microplate reader). The analysis was performed using GraphPad Prism. The average absorbance of the Do plate was set to 0%, and the average absorbance of the negative control of the D3 plate was set to 100%, from which a graph was drawn and the GI50 values were calculated. Each test was performed twice.

[2] = biological target: YES1 kinase (Homo sapiens, UniProt P07947); assay: YES1 kinase inhibition, ADP Glo assay (Promega); type: biochemical; conditions: for inhibition at 0.01 µM: compound 10 nM, read-out: YES1 enzyme, % inhibition, 10 nM; for inhibition at 0.1 µM: compound 100 nM, read-out: YES1 enzyme, % inhibition, 100 nM; for IC50: class symbols, read-out: YES1 enzyme, IC50; for inhibition at 0.001 µM: read-out: YES1 enzyme, % inhibition, 1 nM
Sequence of YES1 kinase (P07947 whole entry): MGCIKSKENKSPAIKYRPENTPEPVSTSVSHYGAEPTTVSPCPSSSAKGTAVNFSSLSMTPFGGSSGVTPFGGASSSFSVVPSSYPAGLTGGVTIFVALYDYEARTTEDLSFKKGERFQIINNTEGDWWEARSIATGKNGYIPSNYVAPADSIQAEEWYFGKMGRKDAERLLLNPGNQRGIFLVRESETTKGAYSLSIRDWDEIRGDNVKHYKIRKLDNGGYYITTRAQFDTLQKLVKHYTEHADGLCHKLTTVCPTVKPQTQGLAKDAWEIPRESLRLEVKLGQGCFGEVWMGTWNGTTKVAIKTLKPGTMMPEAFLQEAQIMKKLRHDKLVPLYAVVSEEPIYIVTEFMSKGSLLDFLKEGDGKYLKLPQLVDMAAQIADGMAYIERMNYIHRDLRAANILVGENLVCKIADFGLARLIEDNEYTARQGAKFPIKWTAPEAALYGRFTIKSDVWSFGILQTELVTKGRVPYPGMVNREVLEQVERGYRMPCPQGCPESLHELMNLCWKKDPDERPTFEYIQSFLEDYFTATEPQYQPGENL
Method: To evaluate the inhibitory activity against YES1 kinase of the compound according to the present invention, ADP Glo assay (Promega) was used, and the following method was performed with reference to the Promega kinase enzyme system protocol. To proceed with the experiment, buffers A-F and compound dilution plates were required.
To prepare A.4X reaction buffer, 800 μl of 5X reaction buffer and 200 μl of distilled water were used. To prepare B.4X kinase buffer, 996.6 μl of A.4X reaction buffer, 2 μl of 0.1M DTT, and 3.2 μl of 2.5M MnCl2 were added and mixed. To prepare C.1X kinase buffer (containing 5% DMSO) used for compound dilution, 250 μl of B.4X kinase buffer, 700 μl of distilled water, and 50 μl of DMSO were added, so that the final DMSO concentration became 5%. Then, 10 mM compounds were diluted 100-fold to prepare 100 μM solutions, and then D.5X inhibitor solution was prepared so that the compound concentration became 5 uM. Using a 96-well plate, 5 μM compounds were 3-fold diluted using C.1X kinase buffer (containing 5% DMSO) to prepare compound plates with concentrations ranging from 0.25 μM to 5 μM. The resulting plates were stored at room temperature. To prepare E. 2.5X ATP/substrate mixture, 50 μl of B.4X kinase buffer, 50 μl of […], and 100 μl of substrate were mixed. To prepare F YES1 kinase enzyme solution, 35 μl of B.4X kinase buffer, 0.4 μl of YES1 enzyme, and 104.6 μl of distilled water were used. Once the diluted compound plates, ATP/substrate mixture, and YES1 kinase solution were all prepared, 3 μL each was transferred from the diluted compound plate to a luciferase 96-well white plate (Since the total volume of the ATP/substrate and YES1 kinase solution that reacts with the compound is 15 μL, the compounds were diluted 5-fold, making the final compound concentration 0.05 μM-1 μM). Then, 6 μL of F. YES1 Kinase Enzyme Solution was transferred to each well, pipetted 10 times to mix, and incubated at room temperature in a shaker for 10 minutes. Next, 6 μL of E. 2.5X ATP/Substrate Mixture was transferred to each well, pipetted 10 times to mix, and centrifuged at 12,000 rpm for 5 minutes. The plate was then incubated in a shaker at room temperature for 40 minutes. After that, 15 μL of ADP-Glo Reagent, dissolved at room temperature, was added to each well, pipetted 10 times, and incubated in a shaker at room temperature for 40 minutes. Finally, 30 μL of Kinase Detection Reagent, dissolved at room temperature, was added, pipetted 10 times, incubated in a shaker at room temperature for 30 minutes. Luminescence was measured using a luminescence plate reader. Then, the background value was subtracted from all measured values, and the YES1 kinase activity at compound concentrations of 1 nM, 10 nM, and 100 nM was calculated. The measured values were calculated as percentages using the average value of the negative control. Graphs were drawn using GraphPad Prism, and the enzyme activity was calculated as a percentage of YES1 kinase inhibition at compound concentrations of 1 nM, 10 nM, and 100 nM. IC50 values were obtained using Microsoft Excel.

Row | Structure (SMILES) | GI50 [1] | inhibition at 0.01 µM [2] | inhibition at 0.1 µM [2] | IC50 [2] | inhibition at 0.001 µM ([2]; compound 1 nM) | YES1 kinase inhibition at 1 nM (in words) ([2]; compound 1 nM)
1 | COc1cc(-c2cc(N3CC4(CCN(C)CC4)C3)n3ncnc(N)c23)ccc1NC(=O)OC(C)(C)C [Example 38, tert-butyl (4-(4-amino-7-(7-methyl-2,7-diazaspiro[3.5]nonan-2-yl)pyrrolo[2,1-f][1,2,4]triazin-5-yl)-2-methoxyphenyl)carbamate] | ≤ 100 nM | 44% | 80% | – | – | –
2 | COc1cc(-c2cc(N[C@H]3C[C@H](N)C3)n3ncnc(N)c23)ccc1NC(=O)OC(C)(C)C [Example 119, tert-butyl (4-(4-amino-7-(((1r,3r)-3-aminocyclobutyl)amino)pyrrolo[2,1-f][1,2,4]triazin-5-yl)-2-methoxyphenyl)carbamate] | 100 to 1000 nM | 55% | – | – | 24% | could be inhibited even at a low concentration of 1 nM
3 | COc1cc(-c2cc(N3CCN(CCN(C)C)CC3)n3ncnc(N)c23)ccc1NC(=O)OC(C)(C)C [Example 28, tert-butyl (4-(4-amino-7-(4-(2-(dimethylamino)ethyl)piperazin-1-yl)pyrrolo[2,1-f][1,2,4]triazin-5-yl)-2-methoxyphenyl)carbamate] | 1000 to 10000 nM | 41% | 85% | – | – | –
4 | COc1cc(-c2cc(N3CCC4C(CCN4C)C3)n3ncnc(N)c23)ccc1NC(=O)OC(C)(C)C (stereo not shown) [Example 26, tert-butyl (4-(4-amino-7-(1-methyloctahydro-5H-pyrrolo[3,2-c]pyridin-5-yl)pyrrolo[2,1-f][1,2,4]triazin-5-yl)-2-methoxyphenyl)carbamate] | 1000 to 10000 nM | 30% | 69% | – | – | –
5 | COCCN1CCN(c2cc(-c3ccc(NC(=O)OC(C)(C)C)c(OC)c3)c3c(N)ncnn23)CC1 [Example 29, tert-butyl (4-(4-amino-7-(4-(2-methoxyethyl)piperazin-1-yl)pyrrolo[2,1-f][1,2,4]triazin-5-yl)-2-methoxyphenyl)carbamate] | > 10000 nM | 28% | 47% | – | – | –
6 | CNC1(C)CCN(c2cc(-c3ccc(NC(=O)OC(C)(C)C)c(OC)c3)c3c(N)ncnn23)CC1 [Example 105, tert-butyl (4-(4-amino-7-(4-methyl-4-(methylamino)piperidin-1-yl)pyrrolo[2,1-f][1,2,4]triazin-5-yl)-2-methoxyphenyl)carbamate] | ≤ 100 nM | – | – | ≤ 100 nM | – | –
7 | COc1cc(-c2c(F)c(N3CCC(N(C)C)CC3)n3ncnc(N)c23)ccc1NC(=O)OC(C)(C)C [Example 128, tert-butyl (4-(4-amino-7-(4-(dimethylamino)piperidin-1-yl)-6-fluoropyrrolo[2,1-f][1,2,4]triazin-5-yl)-2-methoxyphenyl)carbamate] | ≤ 100 nM | 72% | 92% | ≤ 100 nM | – | –
8 | COc1cc(-c2cc(N3CCN(C4CC4)CC3)n3ncnc(N)c23)ccc1NC(=O)OC(C)(C)C [Example 17, tert-butyl (4-(4-amino-7-(4-cyclopropylpiperazin-1-yl)pyrrolo[2,1-f][1,2,4]triazin-5-yl)-2-methoxyphenyl)carbamate] | 1000 to 10000 nM | 53% | 59% | – | – | –
9 | CCN(CC)C1CCN(c2cc(-c3ccc(NC(=O)OC(C)(C)C)c(OC)c3)c3c(N)ncnn23)CC1 [Example 14, tert-butyl (4-(4-amino-7-(4-(diethylamino)piperidin-1-yl)pyrrolo[2,1-f][1,2,4]triazin-5-yl)-2-methoxyphenyl)carbamate] | 100 to 1000 nM | 19% | 77% | – | – | –
10 | COc1cc(-c2cc(N3CCC(N)CC3)n3ncnc(N)c23)ccc1NC(=O)OC(C)(C)CF [Example 65, 1-fluoro-2-methylpropan-2-yl (4-(4-amino-7-(4-aminopiperidin-1-yl)pyrrolo[2,1-f][1,2,4]triazin-5-yl)-2-methoxyphenyl)carbamate] | 100 to 1000 nM | – | – | ≤ 100 nM | – | –
11 | COc1cc(-c2cc(N3CCC4(CCC(=O)N4)CC3)n3ncnc(N)c23)ccc1NC(=O)OC(C)(C)C [Example 54, tert-butyl (4-(4-amino-7-(2-oxo-1,8-diazaspiro[4.5]decan-8-yl)pyrrolo[2,1-f][1,2,4]triazin-5-yl)-2-methoxyphenyl)carbamate] | ≤ 100 nM | 20% | 60% | ≤ 100 nM | – | –

More lines, main results first:

Row | GI50 [1] | inhibition at 0.01 µM [2] | inhibition at 0.1 µM [2] | IC50 [2] | inhibition at 0.001 µM ([2]; compound 1 nM) | Structure (SMILES) | YES1 kinase inhibition at 1 nM (in words) ([2]; compound 1 nM)
12 | ≤ 100 nM | 67% | 88% | ≤ 100 nM | – | COc1cc(-c2c(F)c(N3CCC(N)CC3)n3ncnc(N)c23)ccc1NC(=O)OC(C)(C)C [Example 127, tert-butyl (4-(4-amino-7-(4-aminopiperidin-1-yl)-6-fluoropyrrolo[2,1-f][1,2,4]triazin-5-yl)-2-methoxyphenyl)carbamate] | –
13 | ≤ 100 nM | 59% | 78% | ≤ 100 nM | – | COc1cc(-c2cc(N3CC[C@H](N)[C@@H](C(F)(F)F)C3)n3ncnc(N)c23)ccc1NC(=O)OC(C)(C)C [Example 85, tert-butyl (4-(4-amino-7-((3S,4S)-4-amino-3-(trifluoromethyl)piperidin-1-yl)pyrrolo[2,1-f][1,2,4]triazin-5-yl)-2-methoxyphenyl)carbamate] | –
14 | 100 to 1000 nM | 60% | 87% | – | – | COc1cc(-c2cc(N3CCC4(CCN(C)C4)CC3)n3ncnc(N)c23)ccc1NC(=O)OC(C)(C)C [Example 22, tert-butyl (4-(4-amino-7-(2-methyl-2,8-diazaspiro[4.5]decan-8-yl)pyrrolo[2,1-f][1,2,4]triazin-5-yl)-2-methoxyphenyl)carbamate] | –
15 | 100 to 1000 nM | 52% | – | ≤ 100 nM | 38% | COc1cc(-c2cc(N3CCC(CCN)CC3)n3ncnc(N)c23)ccc1NC(=O)OC(C)(C)C [Example 107, tert-butyl (4-(4-amino-7-(4-(2-aminoethyl)piperidin-1-yl)pyrrolo[2,1-f][1,2,4]triazin-5-yl)-2-methoxyphenyl)carbamate] | –
16 | 100 to 1000 nM | 24% | 69% | – | – | COc1cc(-c2cc(N3CCC4(CN(C)C4)C3)n3ncnc(N)c23)ccc1NC(=O)OC(C)(C)C [Example 37, tert-butyl (4-(4-amino-7-(2-methyl-2,6-diazaspiro[3.4]octan-6-yl)pyrrolo[2,1-f][1,2,4]triazin-5-yl)-2-methoxyphenyl)carbamate] | –
